This passage reports IC50 results from BindingDB's records for doi:10.1021/jm00056a003 (Universit&#224, 1993).

The target in the assay is L-type calcium channel (Felis catus). Description: Inhibition of (-)-[3H]- D-888 binding to L-type calcium channels in kitten heart ventricle membranes.

The term IC50 denotes the concentration that inhibits the measured activity by half.

The structures appear in SMILES notation.

In the case of `COc1ccc(CCN(C)C2CCCC(C(C#N)(c3ccc(OC)c(OC)c3)C(C)C)C2)cc1OC` (stereo unspecified) [(RSR) 2-(3,4-Dimethoxy-phenyl)-2-(3-{[2-(3,4-dimethoxy-phenyl)-ethyl]-methyl-amino}-cyclohexyl)-3-methyl-butyronitrile], the half-maximal inhibitory concentration (IC50) stood at 260 nM.
